From patent US20250381277A1, “COMPOSITIONS AND METHODS FOR TREATMENT OF NEUROLOGICAL DISORDERS” (Dana-Farber Cancer Institute, Inc., priority 2022, published 2025)

Test system: CD11c^− microglia
Test: Apoptotic neuron (AN) uptake and CD11c^- to CD11c^+ differentiation of microglia with αVβ3 / TAM receptor inhibitors
Assay type: cell-based, mouse
Settings: P5 B6-WT CD11c^− microglia, 72 h with pHrodo-labeled ANs 1:1; cilengitide 10 μM, LDC1267 1 μM
From the text: (A) Brain single cell suspensions of 9-mo old WT mice were generated for validation of microglial CD11c expression by flow cytometry. We first gate on CD11b^+ cells from single/live cells followed by subsequent gating of CD11b^+CD45^low populations as potential microglia. […] In contrast, CCR2 but not Tmem 119 expression is detected in the CD11b^+CD45^high fraction, i.e., putative macrophage populations. Analysis of the CD11b^+CD45^low microglial population using FMO negative controls for these FACS plots confirms specificity. […] (B) The proportion of CD11c^+ microglia in C57BL/6 (B6) mice during early development and normal aging (n=3) was determined by flow cytometry analysis. CD11c^+ microglia were initially present at late embryonic day (E18.5), peaked at early postanal day (P5) and gradually declined to marginal levels in young adulthood (3-mon) followed by re-emergence and further expansion during aging. (C) CD11c^− microglia were isolated from P5 B6-WT mice by negative section with anti-CD11c magnetic beads (purity >99%) followed by co-incubation×72 h in the presence or absence of pHrodo fluorescent dye-labeled apoptotic neurons (ANs) at a 1:1 ratio. After 72 h incubation, 23% of total CD11c^− microglia had ingested ANs (AN^+), of which 77.4% of these AN^+ microglia were CD11c^+. […] Expression of CD11c was assessed in CD86^+ or MHC II^+ activated microglia. […]

- reduction of AN uptake by CD11c^− microglia: about 50%
SMILES: CC(C)[C@H]1C(=O)N[C@@H](CCCN=C(N)N)C(=O)NCC(=O)N[C@@H](CC(=O)O)C(=O)N[C@H](Cc2ccccc2)C(=O)N1C [Cilengitide]
